# Test results reported in PubChem BioAssay AID1259407 (Chemical Carcinogenesis Research Information System (CCRIS), 2018).
# Active and inactive are the calls of the source. How the calls were made is not given here.
# Test system: CCRIS mutagenicity, Ames/micronucleus/aberration tests
# Assay: CCRIS mutagenicity studies
smiles,measurement,setting,value
C=C1C/C(=C/C)C(=O)O[C@@H]2CCN3CC=C(COC(=O)[C@]1(C)O)[C@H]23,mutagenic call,"Test System: AMES SALMONELLA TYPHIMURIUM, Strain/Indicator: TA97, Metabolic Activation: HAMSTER, LIVER, S-9, AROCLOR 1254 (5, 10 OR 30%), Method: PREINCUBATION",inactive; negative
same,mutagenic call,"Test System: AMES SALMONELLA TYPHIMURIUM, Strain/Indicator: TA97, Metabolic Activation: NONE, Method: PREINCUBATION",inactive; negative
same,mutagenic call,"Test System: AMES SALMONELLA TYPHIMURIUM, Strain/Indicator: TA97, Metabolic Activation: RAT, LIVER, S-9, AROCLOR 1254 (5, 10 OR 30%), Method: PREINCUBATION",inactive; negative
same,mutagenic call,"Test System: AMES SALMONELLA TYPHIMURIUM, Strain/Indicator: TA98, Metabolic Activation: HAMSTER, LIVER, S-9, AROCLOR 1254 (10%), Method: PREINCUBATION",inactive; negative
same,mutagenic call,"Test System: AMES SALMONELLA TYPHIMURIUM, Strain/Indicator: TA98, Metabolic Activation: NONE, Method: PREINCUBATION",inactive; negative
same,mutagenic call,"Test System: AMES SALMONELLA TYPHIMURIUM, Strain/Indicator: TA98, Metabolic Activation: RAT, LIVER, S-9, AROCLOR 1254 (10%), Method: PREINCUBATION",inactive; negative
same,mutagenic call,"Test System: AMES SALMONELLA TYPHIMURIUM, Strain/Indicator: TA100, Metabolic Activation: HAMSTER, LIVER, S-9, AROCLOR 1254 (5%), Method: PREINCUBATION",inactive; negative
same,mutagenic call,"Test System: AMES SALMONELLA TYPHIMURIUM, Strain/Indicator: TA100, Metabolic Activation: HAMSTER, LIVER, S-9, AROCLOR 1254 (10 OR 30%), Method: PREINCUBATION",active; positive
same,mutagenic call,"Test System: AMES SALMONELLA TYPHIMURIUM, Strain/Indicator: TA100, Metabolic Activation: HAMSTER, LIVER, S-9, PCB, Method: PREINCUBATION",inactive; negative
same,mutagenic call,"Test System: AMES SALMONELLA TYPHIMURIUM, Strain/Indicator: TA100, Metabolic Activation: NONE, Method: PREINCUBATION",inactive; negative
same,mutagenic call,"Test System: AMES SALMONELLA TYPHIMURIUM, Strain/Indicator: TA100, Metabolic Activation: RAT, LIVER, S-9, AROCLOR 1254 (5 OR 30%), Method: PREINCUBATION",inactive; negative
same,mutagenic call,"Test System: AMES SALMONELLA TYPHIMURIUM, Strain/Indicator: TA100, Metabolic Activation: RAT, LIVER, S-9, AROCLOR 1254 (10%), Method: PREINCUBATION",inactive; negative
same,mutagenic call,"Test System: AMES SALMONELLA TYPHIMURIUM, Strain/Indicator: TA100, Metabolic Activation: RAT, LIVER, S-9, PCB, Method: PREINCUBATION",inactive; negative
same,mutagenic call,"Test System: AMES SALMONELLA TYPHIMURIUM, Strain/Indicator: TA100, Metabolic Activation: RAT, LIVER, S-9, SODIUM PHENOBARBITAL AND BETA-NAPHTHOFLAVONE, Method: PREINCUBATION",inactive; negative
same,mutagenic call,"Test System: AMES SALMONELLA TYPHIMURIUM, Strain/Indicator: TA1535, Metabolic Activation: HAMSTER, LIVER, S-9, AROCLOR 1254 (10%), Method: PREINCUBATION",inactive; negative
same,mutagenic call,"Test System: AMES SALMONELLA TYPHIMURIUM, Strain/Indicator: TA1535, Metabolic Activation: NONE, Method: PREINCUBATION",inactive; negative
same,mutagenic call,"Test System: AMES SALMONELLA TYPHIMURIUM, Strain/Indicator: TA1535, Metabolic Activation: RAT, LIVER, S-9, AROCLOR 1254 (10%), Method: PREINCUBATION",inactive; negative
same,mutagenic call,"Test System: UDS HAMSTER HEPATOCYTES, Strain/Indicator: THY INCORP, Metabolic Activation: NONE, Method: AUTORADIOGRAPHY",active; positive
same,mutagenic call,"Test System: UDS MOUSE HEPATOCYTES, Strain/Indicator: THY INCORP, Metabolic Activation: NONE, Method: AUTORADIOGRAPHY",active; positive
same,mutagenic call,"Test System: UDS RAT HEPATOCYTES, Strain/Indicator: THY INCORP, Metabolic Activation: NONE, Method: AUTORADIOGRAPHY",active; positive
Oc1cccc2c3ccccc3c3cc4ccccc4cc3c12,mutagenic call,"Test System: AMES SALMONELLA TYPHIMURIUM, Strain/Indicator: TA100, Metabolic Activation: RAT, LIVER, S-9, AROCLOR 1254, Method: PREINCUBATION",inactive; negative
